Assay: Water dispersability, visual evaluation
Type: physicochemical
Details: quantity corresponding to 50 mg of Coenzyme Q10 in about 40 ml of tap water at room temperature; evaluated visually
Description: The water dispersability of the granulate of the invention was evaluated visually in comparison with unformulated Coenzyme Q10 administered as crystal powder. A quantity of the granulate of the invention corresponding to 50 mg of Coenzyme Q10 was dispersed in about 40 ml of tap water at room temperature. The product formed a very fine and homogeneous cloudy dispersion under mild agitation and no precipitation occurred.

With `COC1=C(OC)C(=O)C(C/C=C(\C)CC/C=C(\C)CC/C=C(\C)CC/C=C(\C)CC/C=C(\C)CC/C=C(\C)CC/C=C(\C)CC/C=C(\C)CC/C=C(\C)CCC=C(C)C)=C(C)C1=O` [crystalline Coenzyme Q10, Coenzyme Q10] as the compound, how does the water dispersability read?
Its water dispersability is “the powder remained on the surface of water”.
